In publication PMC6172315, “Relative Selectivity of Plant Cardenolides for Na^+/K^+-ATPases From the Monarch Butterfly and Non-resistant Insects” (Frontiers in Plant Science, 2018):
pIC50: −log10 of the molar value. “Also recorded” adds a separate entry of the source.

Columns and labels:
[1] = target: S. gregaria-Na^+/K^+-ATPase (Schistocerca gregaria, UniProt A0A8E5JSN5); type: biochemical; details: Supplementary Figure 2
Procedure: (§1) Danaus plexippus was caught in the field or purchased; E. core and S. gregaria were obtained commercially, with additional E. core from a laboratory colony. […] Briefly, brains dissected from butterflies stored at -80°C or recta from locusts were homogenized (individually or pooled) with an all glass grinder (Wheaton) in deionized water, frozen at -80°C, freeze-dried, and stored frozen until use. For in vitro assays, lyophilisates were dissolved in water, sonicated in an ultrasonic bath, and centrifuged to remove undissolved matter. All cardiac glycosides were tested at least with three biological replicates of Na^+/K^+-ATPase (i.e., Na^+/K^+-ATPase from genetically different specimens or pools of specimens).
(§2) Means of duplicate determinations (i.e., technical replicates) were used as data points. In consequence, each data point of a dose–response curve is the mean of at least three biological replicates based on two technical replicates, each. […] Here, technical replicates collected on the same 96-well plate were averaged and used as data points.
(§3) Stock solutions of cardiac glycosides, as well as pregnane glycosides, were prepared from crystalline compounds in DMSO. While concentrations of all other compounds were based on mass, calactin, and calotropin stock solutions were adjusted with HPLC using digitoxin as a reference.
(§4) Pairwise statistical comparisons of dose-response curves were carried out using the “compare datasets” option in OriginPro, which is based on an F-Test evaluating if the two curves are identical. Correlation analyses using log10-transformed IC50 values was also carried out with OriginPro. […] To analyze relative selectivity without a reference, we also plotted the fold differences between the IC50 values of individual cardenolides for non-adapted and adapted insect Na^+/K^+-ATPase and compared them to mammalian (lamb) Na^+/K^+-ATPase (Figure 2).

[2] = set-up: method as in Imai et al., 1965; details: ref Imai et al., 1965; cited from earlier work
E. core-Na^+/K^+-ATPase = E. core-Na^+/K^+-ATPase (Euploea core, UniProt A0A5C0C9F5); test: In vitro inhibition assay of E. core Na+/K+-ATPase (phosphate release); type: biochemical
Procedure: as §1, §2, §3, §4

[3] = target: D. plexippus-Na^+/K^+-ATPase (Danaus plexippus, UniProt K0G7C4); test: In vitro inhibition assay of D. plexippus Na+/K+-ATPase (phosphate release); type: biochemical
Procedure: as §1, §2, §3, §4

physchem = test: physchem
Procedure: as §3

[4] = both dissolved in 25% DMSO, F-test of curves

Sequence of D. plexippus-Na^+/K^+-ATPase (K0G7C4 1-1009): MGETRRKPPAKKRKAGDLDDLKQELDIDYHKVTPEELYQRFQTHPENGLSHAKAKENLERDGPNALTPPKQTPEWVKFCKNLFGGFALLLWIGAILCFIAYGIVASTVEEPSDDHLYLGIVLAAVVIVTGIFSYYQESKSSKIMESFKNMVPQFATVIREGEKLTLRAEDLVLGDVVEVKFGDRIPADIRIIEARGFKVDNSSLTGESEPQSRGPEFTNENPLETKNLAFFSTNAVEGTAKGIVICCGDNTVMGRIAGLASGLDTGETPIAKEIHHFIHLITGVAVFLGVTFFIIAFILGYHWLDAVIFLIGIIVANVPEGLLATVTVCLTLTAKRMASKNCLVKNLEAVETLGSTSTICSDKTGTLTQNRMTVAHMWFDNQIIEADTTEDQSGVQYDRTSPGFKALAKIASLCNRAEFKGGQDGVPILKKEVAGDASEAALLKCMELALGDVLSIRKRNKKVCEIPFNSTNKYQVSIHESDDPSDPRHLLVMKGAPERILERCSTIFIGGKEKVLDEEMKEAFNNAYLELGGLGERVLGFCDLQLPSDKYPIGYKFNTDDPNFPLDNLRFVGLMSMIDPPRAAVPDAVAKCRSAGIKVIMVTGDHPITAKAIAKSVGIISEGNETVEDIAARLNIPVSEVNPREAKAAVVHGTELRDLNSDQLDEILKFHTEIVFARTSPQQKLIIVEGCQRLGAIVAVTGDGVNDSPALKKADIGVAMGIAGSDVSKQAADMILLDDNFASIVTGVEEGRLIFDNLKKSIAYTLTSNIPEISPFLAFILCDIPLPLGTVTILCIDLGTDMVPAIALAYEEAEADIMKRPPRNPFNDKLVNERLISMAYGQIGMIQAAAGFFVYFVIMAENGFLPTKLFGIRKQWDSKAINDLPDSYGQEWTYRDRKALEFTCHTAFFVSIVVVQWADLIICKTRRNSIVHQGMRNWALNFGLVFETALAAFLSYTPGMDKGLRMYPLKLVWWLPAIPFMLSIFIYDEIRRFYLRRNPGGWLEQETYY
Sequence of E. core-Na^+/K^+-ATPase (A0A5C0C9F5 1-1013): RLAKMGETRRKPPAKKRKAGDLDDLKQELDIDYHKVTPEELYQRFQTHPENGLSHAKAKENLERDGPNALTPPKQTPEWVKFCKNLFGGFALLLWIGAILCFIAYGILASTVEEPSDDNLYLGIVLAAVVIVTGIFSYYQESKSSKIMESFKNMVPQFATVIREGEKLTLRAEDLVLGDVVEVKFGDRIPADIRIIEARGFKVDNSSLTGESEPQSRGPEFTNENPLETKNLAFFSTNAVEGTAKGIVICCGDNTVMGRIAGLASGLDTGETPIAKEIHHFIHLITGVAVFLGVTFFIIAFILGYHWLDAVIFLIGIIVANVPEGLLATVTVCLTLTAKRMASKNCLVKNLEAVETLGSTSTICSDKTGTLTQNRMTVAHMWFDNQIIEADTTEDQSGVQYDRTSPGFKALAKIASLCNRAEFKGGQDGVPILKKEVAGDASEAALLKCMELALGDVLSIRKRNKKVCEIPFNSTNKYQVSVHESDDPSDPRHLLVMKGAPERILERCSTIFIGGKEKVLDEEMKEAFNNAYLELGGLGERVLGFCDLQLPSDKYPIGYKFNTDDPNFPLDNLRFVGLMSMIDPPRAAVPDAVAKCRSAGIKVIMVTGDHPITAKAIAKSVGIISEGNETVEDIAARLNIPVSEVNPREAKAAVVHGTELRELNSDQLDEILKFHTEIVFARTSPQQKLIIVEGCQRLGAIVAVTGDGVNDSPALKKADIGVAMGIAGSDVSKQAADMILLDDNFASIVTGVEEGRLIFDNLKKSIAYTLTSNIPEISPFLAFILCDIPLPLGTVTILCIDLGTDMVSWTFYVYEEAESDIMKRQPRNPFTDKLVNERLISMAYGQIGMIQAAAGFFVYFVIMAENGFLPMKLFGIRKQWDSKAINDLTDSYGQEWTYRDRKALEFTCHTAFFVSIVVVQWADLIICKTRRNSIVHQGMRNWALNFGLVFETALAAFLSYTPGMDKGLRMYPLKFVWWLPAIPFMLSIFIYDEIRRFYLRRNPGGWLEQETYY
Sequence of S. gregaria-Na^+/K^+-ATPase (A0A8E5JSN5 1-1039): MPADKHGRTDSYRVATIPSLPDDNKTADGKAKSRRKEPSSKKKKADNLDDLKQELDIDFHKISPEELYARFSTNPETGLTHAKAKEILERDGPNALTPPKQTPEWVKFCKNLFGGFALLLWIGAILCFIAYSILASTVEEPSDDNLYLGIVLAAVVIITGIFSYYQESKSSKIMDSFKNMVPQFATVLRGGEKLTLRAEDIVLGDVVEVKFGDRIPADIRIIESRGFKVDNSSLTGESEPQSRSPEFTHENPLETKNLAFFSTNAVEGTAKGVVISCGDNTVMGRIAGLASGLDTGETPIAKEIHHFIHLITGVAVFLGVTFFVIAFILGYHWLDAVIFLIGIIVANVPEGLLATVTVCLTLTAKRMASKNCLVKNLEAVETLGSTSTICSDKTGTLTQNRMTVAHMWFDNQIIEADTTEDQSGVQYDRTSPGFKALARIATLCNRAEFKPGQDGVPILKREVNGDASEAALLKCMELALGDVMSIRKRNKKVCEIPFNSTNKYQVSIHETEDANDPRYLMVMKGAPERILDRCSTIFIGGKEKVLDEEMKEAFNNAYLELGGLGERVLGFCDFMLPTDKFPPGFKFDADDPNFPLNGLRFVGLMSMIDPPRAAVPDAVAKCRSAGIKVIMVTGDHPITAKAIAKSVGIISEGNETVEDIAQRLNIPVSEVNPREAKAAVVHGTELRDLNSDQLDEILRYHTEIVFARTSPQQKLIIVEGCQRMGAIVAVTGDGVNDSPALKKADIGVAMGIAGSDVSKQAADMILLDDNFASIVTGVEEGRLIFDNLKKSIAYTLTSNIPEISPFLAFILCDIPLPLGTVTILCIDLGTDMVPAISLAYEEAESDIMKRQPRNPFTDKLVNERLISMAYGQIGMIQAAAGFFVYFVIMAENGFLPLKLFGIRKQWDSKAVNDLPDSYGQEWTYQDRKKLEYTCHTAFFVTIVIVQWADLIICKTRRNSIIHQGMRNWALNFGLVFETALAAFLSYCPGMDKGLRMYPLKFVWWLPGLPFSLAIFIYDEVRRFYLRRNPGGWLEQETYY

## CO[C@@H]1C[C@H](O[C@H]2CC[C@@]3(C)[C@H](CC[C@@]45O[C@@]46CC[C@H](C4=CC(=O)OC4)[C@@]6(C)CC[C@H]35)C2)O[C@H](C)[C@@H]1O [adynerin]
[1]
  inhibition of S. gregaria-Na^+/K^+-ATPase (in words): lack of inhibition; also recorded: failed to inhibit
[2]
  cardiotonic activity in vertebrates: lack cardiotonic activity

## CC12CCC(O)CC1CCC1C2CCC2(C)C(C3=CC(=O)OC3)CCC12O (stereo not shown) [uzarigenin]
E. core-Na^+/K^+-ATPase; EC, F-test comparison of entire dose-response curves with ouabain
  inhibition of E. core Na^+/K^+-ATPase compared to ouabain: < ouabain; F2,6 = 53.30, p < 0.001
E. core-Na^+/K^+-ATPase; [4]
  inhibition of E. core Na^+/K^+-ATPase compared to 5β equivalent digitoxigenin: no difference
E. core-Na^+/K^+-ATPase; read-out: IC50 E. core- Na^+/K^+-ATPase, Na+/K+-ATPase extracted from butterfly brains
  pIC50: 5.34
[3]; DP, F-test comparison of entire dose-response curves with ouabain
  inhibition of D. plexippus Na^+/K^+-ATPase compared to ouabain: > ouabain; F2,6 = 5.73, p = 0.04
[3]; [4]
  inhibition of D. plexippus Na^+/K^+-ATPase compared to 5β equivalent digitoxigenin: no difference
[3]; read-out: IC50 D. plexippus- Na^+/K^+-ATPase, Na+/K+-ATPase extracted from butterfly brains
  pIC50: 4.80
physchem; ambient conditions
  solubility compared to 5-β-isomer digitoxigenin: at least three to four times lower; also recorded: strongly reduced
physchem; aqueous with cosolvent or surfactant or cyclodextrin, kinetic from dmso stock
  solubility: < 100 µM
